The text below walks through data of EP4745117A1, “NOVEL INDENONE DERIVATIVE AND USE THEREOF” (Amyloid Solution Inc., priority 2023, dated 2025).

Test [1] addresses Tau-RD3 (Tau repeat domain 3) (Homo sapiens, UniProt P10636). The test is described as follows: Tau disaggregation test by Thioflavin-T analysis. Format: biochemical. To be noted: for EC50: Tau-RD3 35 µM aggregated 24 hours, then compound 0 - 500 µM for 48 hours at 37 °C, concentration disaggregating 50 % of aggregates vs control, read-out: EC50 (µM) Tau; for disaggregation effect for tau protein aggregates: statement in words summarising the Thioflavin-T results. The method, boiled down: (§1)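 Aβ1-42 (50 µM) or Tau-RD3 (35 µM) pre-aggregated 24 h at 37 °C, then incubated with compound (500 µM down to 0 µM, serial dilution) for 48 h at 37 °C. Read-out by Thioflavin-T (5 µM solution, glycine buffer pH 8.5) fluorescence, ex 450/em 485 nm. Values expressed relative to 72 h aggregated protein-only control (100%).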

For a further test, the target named is T1, Aβ1-42 (Homo sapiens, UniProt P05067).
T1 construct: dissolving Aβ1-42 or Tau-RD3 (Tau repeat domain 3) monomers in DMSO
T1 sequence (P05067 672-713 limits assumed): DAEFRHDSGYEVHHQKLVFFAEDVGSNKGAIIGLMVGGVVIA
The test is described as follows: Amyloid-beta disaggregation test by Thioflavin-T analysis. The format is biochemical. To be noted: for EC50: Aβ1-42 50 µM aggregated 24 hours, then compound 0 - 500 µM for 48 hours at 37 °C, concentration disaggregating 50 % of aggregates vs control, read-out: EC50 (µM) Aβ; for disaggregation effect for amyloid-beta protein aggregates: statement in words summarising the Thioflavin-T results. The method, boiled down:
as §1

Test [2] has as its system amyloid-beta oligomers in HEK293 cells transfected with the APP E693Δ mutant plasmid. The test is described as follows: Amyloid-beta oligomer change by dot blot (A11 antibody) in an amyloid-beta oligomer-overexpressing cell line. Format: cell-based. To be noted: compound 10 µM, 48 hours, dot blot of cell lysate, relative to control group (FIG. 1). An excerpt:
To observe the change in intracellular amyloid-beta oligomers, a plasmid with the APP E693Δ (Osaka mutation) mutant, which is associated with early-onset Alzheimer's disease and is known to induce intracellular amyloid-beta oligomer formation, was obtained from GenScript. This plasmid was transfected into HEK293 cells using a liposome-mediated method (Lipofectamine) to prepare a cell line that overexpresses intracellular amyloid-beta oligomers.
HEK293 cells transfected with the APP E693Δ mutant plasmid were incubated for 48 hours in a 37 °C, 5 % CO2 incubator, and then treated with the compounds prepared in 1.1, which were diluted to a concentration of 10 µM in the cell culture medium. The untransfected control group was treated with 0.1 % DMSO, the same as the compound-treated group.
The compound-treated cell lines were again incubated for 48 hours in a 37 °C, 5 % CO2 incubator and then used in the experiment.
After incubating the control and compound-treated cells from Example 2.2, a dot blot was performed using the cell lysate. A 3.5 µg sample was spotted onto a nitrocellulose membrane and air-dried, and then the membrane to which the sample was adhered was blocked with 5 % skim milk. After incubating with the amyloid oligomer antibody A11 to allow binding, the membrane was washed 4 times with TBST, and the secondary antibody was bound. The image signal was measured using a chemiluminescent substrate.
It was confirmed that the amount of amyloid-beta oligomers was reduced by each compound treatment compared to the control group.

Chain of Tau-RD3 (Tau repeat domain 3) (P10636 623-653 limits assumed): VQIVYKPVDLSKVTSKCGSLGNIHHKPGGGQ

What is called EC50 is the concentration needed to bring the measured effect to its halfway point. For the compound `Cc1ncsc1C1=C(c2cccnc2)C(=O)c2cc(NC3CC3)ccc21` [Compound 63, 6-(cyclopropylamino)-3-(4-methylthiazol-5-yl)-2-(pyridin-3-yl)-1H-inden-1-one], in test [1], the EC50 was below 20 µM and the “disaggregation effect for tau protein aggregates” value is “remarkably excellent disaggregation effect”. At Aβ1-42, the EC50 was below 20 µM and the “disaggregation effect for amyloid-beta protein aggregates” value is recorded as “remarkably excellent disaggregation effect”. Also, the “amyloid-beta oligomer reduction effect” value in test [2] is recorded as “reduction effect”.
`Cc1ncsc1C1=C(c2cccnc2)C(=O)c2cc(N(C)CCCc3ccccc3)ccc21` [Compound 65, 6-(methyl(3-phenylpropyl)amino)-3-(4-methylthiazol-5-yl)-2-(pyridin-3-yl)-1H-inden-1-one]: in test [1], the EC50 is below 20 µM and the “disaggregation effect for tau protein aggregates” value is “remarkably excellent disaggregation effect”. For the same compound, the “disaggregation effect for amyloid-beta protein aggregates” value at Aβ1-42 was “remarkably excellent disaggregation effect”. Besides, the “amyloid-beta oligomer reduction effect” value in test [2] is “reduction effect”.
Consider `O=C1C(c2ccccc2)=C(c2ccccc2)c2ccc(N3CCN(CCO)CC3)cc21` [Compound 70, 6-(4-(2-hydroxyethyl)piperazin-1-yl)-2,3-diphenyl-1H-inden-1-one], for which, in test [1], the EC50 was below 20 µM and the “disaggregation effect for tau protein aggregates” value was “remarkably excellent disaggregation effect”. Also, at Aβ1-42, the EC50 was below 20 µM and the “disaggregation effect for amyloid-beta protein aggregates” value is “remarkably excellent disaggregation effect”. Besides, the “amyloid-beta oligomer reduction effect” value in test [2] was “reduction effect”.
With `Cc1cccc(C)c1C1=C(c2ccccc2)C(=O)c2cc(N3CCN(C)CC3)ccc21` [Compound 72, 3-(2,6-dimethylphenyl)-6-(4-methylpiperazin-1-yl)-2-phenyl-1H-inden-1-one], in test [1], the EC50 was below 20 µM and the “disaggregation effect for tau protein aggregates” value is given as “remarkably excellent disaggregation effect”. On Aβ1-42, the EC50 is below 20 µM and the “disaggregation effect for amyloid-beta protein aggregates” value was “remarkably excellent disaggregation effect”. Further, in test [2], the “amyloid-beta oligomer reduction effect” value is given as “reduction effect”.
As for `Cc1ncsc1C1=C(c2ccc(N3CCN(C)CC3)cc2)C(=O)c2cc(N3CCN(CCO)CC3)ccc21` [Compound 74, 6-(4-(2-hydroxyethyl)piperazin-1-yl)-2-(4-(4-methylpiperazin-1-yl)phenyl)-3-(4-methylthiazol-5-yl)-1H-inden-1-one], the EC50 (in test [1]; at Aβ1-42) was below 20 µM each time. The “amyloid-beta oligomer reduction effect” value in test [2] was “reduction effect”.
Consider `Cc1ncsc1C1=C(c2ccc(N3CCN(C)CC3)cc2)C(=O)c2cc(Cl)ccc21` [Compound 74-7, 6-chloro-2-(4-(4-methylpiperazin-1-yl)phenyl)-3-(4-methylthiazol-5-yl)-1H-inden-1-one], for which, in test [1], the EC50 is below 20 µM and the “disaggregation effect for tau protein aggregates” value is reported as “remarkably excellent disaggregation effect”. On Aβ1-42, the EC50 was below 20 µM and the “disaggregation effect for amyloid-beta protein aggregates” value is recorded as “remarkably excellent disaggregation effect”. In addition, the “amyloid-beta oligomer reduction effect” value in test [2] is given as “reduction effect”.
As to `Cc1ncsc1C1=C(c2ccc(N3CCN(C)CC3)cc2)C(=O)c2cc(N3CCN(C)CC3)ccc21` [Compound 75, 6-(4-methylpiperazin-1-yl)-2-(4-(4-methylpiperazin-1-yl)phenyl)-3-(4-methylthiazol-5-yl)-1H-inden-1-one], the EC50 (in test [1]; at Aβ1-42) was below 20 µM each time. Further, the “amyloid-beta oligomer reduction effect” value in test [2] was “reduction effect”.
Take `CN1CCN(c2ccc(C3=C(c4ccccc4)c4ccccc4C3=O)cc2)CC1` [Compound 90, 2-(4-(4-methylpiperazin-1-yl)phenyl)-3-phenyl-1H-inden-1-one]: in test [1], the EC50 is below 20 µM and the “disaggregation effect for tau protein aggregates” value is “remarkably excellent disaggregation effect”. Also, on Aβ1-42, the EC50 was below 20 µM and the “disaggregation effect for amyloid-beta protein aggregates” value is given as “remarkably excellent disaggregation effect”. Further, in test [2], the “amyloid-beta oligomer reduction effect” value is given as “reduction effect”.
